In patent US10821080B2, “Microencapsulation process with solvent and salt” (Evonik Corporation, priority 2008, dated 2020):

Assay: Equilibrium/saturation study of solvent solubility in PVA solutions with increasing salt concentration
Format: physicochemical
Procedure: An equilibrium/saturation study was performed to measure solvent solubilities in PVA solutions in increasing salt concentration levels. The saturation solubility in weight % of ethyl acetate and methylene chloride were individually tested with varying sodium chloride weight % in a 2% PVA aqueous solution. […] At about 15 weight % sodium chloride contention, the PVA began to salt out of the solution.

Compound: CCOC(C)=O [ethyl acetate]
- saturation solubility in weight % as the sodium chloride content was increased: decreased
